Reference: BigSolDB 2.1

O=C(O)CCCCCC(=O)O
Conditions | solubility (mole fraction)
in THF, 298.95 K | 0.191
in THF, 300.55 K | 0.198
in THF, 302.15 K | 0.204
in THF, 303.65 K | 0.211
in THF, 305.15 K | 0.218
in THF, 307.95 K | 0.231
in THF, 309.05 K | 0.235
in THF, 311.75 K | 0.25
in THF, 313.75 K | 0.259
in THF, 315.75 K | 0.271
in THF, 317.75 K | 0.282
in THF, 320.25 K | 0.296
in THF, 321.65 K | 0.306
in THF, 323.05 K | 0.316
in diethyl ether, 278.95 K | 0.0091
in diethyl ether, 281.95 K | 0.0102
in diethyl ether, 284.65 K | 0.0112
in diethyl ether, 287.05 K | 0.0122
in diethyl ether, 290.05 K | 0.0137
in diethyl ether, 292.95 K | 0.0152
in diethyl ether, 294.75 K | 0.0165
in diethyl ether, 296.35 K | 0.018
in diethyl ether, 299.15 K | 0.0199
in diethyl ether, 301.55 K | 0.0222
in ethanol, 298.45 K | 0.121
in ethanol, 301.45 K | 0.131
in ethanol, 304.25 K | 0.144
in ethanol, 305.75 K | 0.151
in ethanol, 307.55 K | 0.158
in ethanol, 310.25 K | 0.172
in ethanol, 312.15 K | 0.187
in ethanol, 314.85 K | 0.202
in ethanol, 316.25 K | 0.206
in ethanol, 317.95 K | 0.219
in ethanol, 320.95 K | 0.235
in ethanol, 323.55 K | 0.248
in ethanol, 325.65 K | 0.267
in ethanol, 327.55 K | 0.281
in ethanol, 329.25 K | 0.294
in methanol, 300.75 K | 0.142
in methanol, 302.65 K | 0.152
in methanol, 304.15 K | 0.159
in methanol, 305.95 K | 0.171
in methanol, 307.65 K | 0.18
in methanol, 310.05 K | 0.187
in methanol, 312.65 K | 0.205
in methanol, 314.85 K | 0.218
in methanol, 317.85 K | 0.246
in methanol, 321.35 K | 0.27
in methanol, 323.75 K | 0.293
in methanol, 325.55 K | 0.309
in methanol, 327.15 K | 0.324
in methanol, 328.75 K | 0.342
